The test system of data set [1] is aggregation of 103Q in PC12 cells. The experiment in a line: polyQ (103Q) aggregation in ecdyson-inducible PC12 cells. It counts as cell-based, rat. The procedure: (§1) To study the inhibitors we identified using the yeast screen in mammalian cells, we employed ecdyson-inducible rat phaeochromocytoma (PC12) cells. Compounds were tested in two clones, 14A2/5 and 14A2/6, with highest aggregation rate. We incubated undifferentiated PC12 cells with muristerone A to induce 103Q expression, and we exposed the cells to compounds at concentrations ranging from 1 to 10 μM. […] All compounds were non-toxic except C2, which was toxic at concentrations higher than 5 μM.
We tested these analogs at concentrations ranging from 0.025 μM to 5.0 μM for their effects on polyQ aggregation in PC12 cells. Among 24 analogs of C1; 28 analogs of C2; 24 analogs of C3, and 53 analogs of C4, we identified several potent inhibitors of polyQ aggregation. From our C2 focus library, we isolated compound C2-8 (B2 in Table 2), which inhibits polyQ aggregation with an IC50 value 50 nM. We also identified C2-10 (B6 in Table 2) and C2-11 (M16 (formula V(n)) in Table 5), and B7, B8 and B9 in Table 2. From our C3 focus library, we isolated compound C3-5 (M22 (formula V(t)) in Table 5) (having an IC50 value of 100 nM) and compound C3-6 (M17 (formula V(o)) in Table 5) (having an IC50 value of 5 μM). From our C4 library, we isolated compound C4-7 (A31 in Table 1), which has an IC50 value 100 nM. We also identified C4-34 (A3 in Table 1).

In the next data set the test system is PC12 cells. The experiment in a line: toxicity in PC12 cells. The class given is cell-based, rat. The procedure: as §1
In the C1 library, no inhibitors of polyQ aggregation with high potency were found.

The test system of another data set is Cos1 cells. The experiment in a line: toxicity for Cos1 cells. The class given is cell-based. The procedure:
The inhibitory activity we observed with C1-C4 in the PC12 cell model described above was confirmed in Cos1 cells transiently transfected with a CMV promoter-based DNA construct that encodes an Htt exon I fragment of Huntington's disease protein (Htt)) having 51 consecutive glutamine residues (HD Q51). When expressed in Cos1 cells, HD 51Q polypeptides readily form aggregates. Transfected Cos1 cells were incubated with C1-C4 compounds in culture medium and lysed. The lysates were then heat-denatured in SDS and passed through a cellulose acetate membrane, which captures aggregated, but not soluble polypeptides. Polyglutamine aggregates trapped on membranes were detected by immunostaining with antibody specific to extended polyQ. Pre-incubation of cells with compounds C1, C3, and C4 decreased the amount of retained polyQ, indicating inhibitory effects on polyQ aggregation. The IC50 for compound C1 was 10 μM and the IC50 for compounds C3 and C4 was 5 μM. As C2 was toxic for Cos1 cells, its effect on aggregation was not determined.

The target in data set [2] is T1, Recombinant HD Q51 polypeptide (Homo sapiens, UniProt P42858, INS38QQQQQQQQQQQQQQQQQQQQQQQQQQQQQQ).
T1 construct: made in house
As to the kind of experiment: cell-free trap assay of purified polyQ. The class given is biochemical. To be noted: cell-free; up to 100 mM. Here is the method: To determine whether C2 could directly interfere with polyQ aggregation, we reproduced this process in vitro and assayed the inhibitory effects of the compounds in a cell-free trap assay. Recombinant HD Q51 polypeptide, purified from bacteria, was incubated in the presence or in the absence of C2 for a time sufficient to allow aggregation. Then, upon heat-denaturation in SDS buffer, samples were filtered through a cellulose acetate membrane. Harsh denaturation conditions separated unaggregated soluble peptides, which passed through the membrane, and insoluble aggregates, which were retained on the membrane. The polyQ aggregates trapped on the membrane were subsequently immunostained and quantified.
Congo Red, which is structurally unrelated to C2-8, was used as a control.

For a further data set, the system named is p53 protein. The experiment in a line: levels of endogenous p53 protein in PC12 cells. The class given is cell-based, rat. Here is the method:
The protein levels of Htt fragments containing 103Q in PC12 cells were not affected by incubation with compounds at the concentrations tested. Furthermore, proteolytic capacity of cells treated with compound C2 appeared to be normal, since levels of a highly unstable endogenous p53 protein in PC12 cells were not changed.

Data set [3] has as its system polyQ-containing polypeptides. As to the kind of experiment: aggregation of polyQ-containing polypeptides, assay not specified.
The test system of another data set is photoreceptor neurons. As to the kind of experiment: Drosophila HD photoreceptor neurodegeneration model. The class given is in vivo. The source says:
A variety of animal models of Huntington disease have been developed. Examination of the degeneration of photoreceptor neurons facilitated by extended polyQ expression is one such model (Jackson et al., Neuron 21:633-642, 1998).
We used the photoreceptor model in Drosophila to test a variety of different compounds, including naphthylamine derivatives, for an effect on neurodegeneration. […] C9-2 is 2-(3-methoxypropyl)-1H-benzo[de]isoquinoline-1,3(2H)-dione.

For a further data set, the system named is HDAc. The experiment in a line: HDAc activity. The class given is biochemical.
The subject of data set [4] is striatum of 11Q/111Q cells and PC12 cells. The experiment in a line: transcriptional activation or repression in striatum 111Q cells and PC12 cells. The class given is cell-based. The source says: Biochemical activity associated with C9-2 is not well understood. […] Future studies include testing the compound for anti-apoptotic activity, and transcriptional profiling using a striatum cell line derived from a double knock-out mutant htt mouse. The C9-2 analogs C9-2B (A30 in Table 1) and C9-2A (control) (A29 in Table 1) are being tested for an effect on photoreceptor neurodegeneration in the Drosophila HD model.

For the next data set, the system named is DNA. The experiment in a line: DNA binding activity.
The subject of data set [5] is SP1 trancription factor binding motif (6XSP1) promoter. As to the kind of experiment: 6XSP1 luciferase transcription-based assay in 111Q/111Q striatum double knock-in cells. The class given is cell-based, mouse. To be noted: 6XSP1 luciferase reporter; CG4 among CG series, less potent than C9-4. Here is the method: FIGS. 1A-1C. FIG. 1A is a bar graph showing luciferase expression in Sp1-luc/111Q striatum double knock-in cells following treatment with different compounds, as indicated. Fluorescence was measured 24 hours after addition of compound. FIG. 1B is a bar graph as described in FIG. 1A. Fluorescence was measured 48 hours after addition of compound. FIG. 1C is a bar graph as described in FIG. 1A. Fluorescence was measured 72 hours after addition of compound.
We conducted structure activity relationship (SAR) studies to optimize transcription activation. We developed a novel transcription-based assay for this purpose. A luciferase reporter gene was stably integrated into 111Q/111Q striatum double knock-in cells and constitutively expressed under control of a promoter containing six copies of the SP1 trancription factor binding motif (6XSP1). In this system, C9 was determined to have an EC200 of 7.5 μM.

A further data set relates to htt103Q-EGFP. As to the kind of experiment: PC12 htt103Q-EGFP fluorescence assay. The settings on record: PC12 cells. The class given is cell-based. From the text: A PC12 cell line was engineered to express extended polyQ under the control of an ecdysone-inducible promoter. In the assay cell line, an N-terminal fragment of htt containing an extended polyQ tract was stably expressed as a fusion with EGFP (htt103Q-EGFP), from the pIND vector. Expression of extended polyQ in these cells was controlled by addition of an ecdysone analog, in this case muristerone A. In this assay, EGFP fluorescence directly correlated with htt103Q-EGFP expression levels. This system was designed to assess the effects of specific compounds on overall levels of extended polyglutamines in cells, using a simple fluorescent-based read-out.

The next data set has as its system proteasomal dysfunction. As to the kind of experiment: proteasomal dysfunction in PC12 cells expressing extended polyQ. The class given is cell-based.
In data set [6] the test system is mutant Huntingtin transgene (htt). The experiment in a line: transgene (mutant htt, extended polyQ) expression in inducible PC12 cells. It counts as cell-based, rat. To be noted: 2.5 μM. The source says:
The compound C9 (A33 in Table 1) has structural similarity to the histone deacetylase (HDAc) inhibitor, scriptaid (6-(1,3-Dioxo-1H,3H-benzo[de]isoquinolin-2-yl)-N-hydroxyhexanamide) (Su et al., Cancer Res. 60:3137, 2000; A5 in Table 1). We observed the most dramatic effect on expression level by C9 and scriptaid in the PC12 cell line 14A2/6 expressing the extended polyQ mutant htt(104Q). The effect of C9 on the down-regulation of polyQ expression, was similar to cystamine, a drug that has shown efficacy in a mouse model for Huntington's Disease (HD). […] 14A2/6 cells were at least 5-fold more responsive to chemical treatment than other cell lines tested.
Transcriptional dysregulation is a hallmark of HD. […] Expression of the polypeptide was under control of an inducible ecdysone receptor (EcR)-based promoter.

The next data set deals with flies. As to the kind of experiment: toxicity to flies. More on the design: species or system Drosophila. The settings on record: in vivo. From the text: Scriptaid was toxic to flies.

These results are taken from US8404747B2, “Compositions and methods for modulating interaction between polypeptides” (The General Hospital Corporation, priority 2004, dated 2013).

What is called IC50 is the midpoint of a concentration-inhibition curve.

Entries after “also recorded” stand apart in the source; their conditions may differ.

T1 sequence (P42858 with tags, fused parts or gaps with the stated changes): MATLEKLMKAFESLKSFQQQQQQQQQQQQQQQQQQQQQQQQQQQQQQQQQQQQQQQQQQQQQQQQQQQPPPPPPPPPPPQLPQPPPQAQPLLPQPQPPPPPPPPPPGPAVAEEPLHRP

On to `O=C(Nc1ccc(Br)cc1)c1ccc(Br)c(S(=O)(=O)NC2CCCCC2)c1` [Compound C2, 4-Bromo-N-(4-bromo-phenyl)-3-cyclohexylsulfamoyl-benzamide], for which the IC50 in data set [1] (Rattus norvegicus, PC-12, PC12 clones 14A2/5 and 14A2/6, muristerone A induced, 1 to 10 μM, read-out: IC50, aggregation of 103Q) turned out to be 5 µM. Further, the toxic concentrations entry in the data set on PC12 cells (PC12 cells) is recorded as “higher than 5 μM”. Besides, the “toxicity for Cos1 cells” value in the data set on Cos1 cells is on record as “toxic”. In data set [2], the “aggregation of pure polyglutamines in vitro” value is given as “failed to block aggregation”. In addition, the “levels of endogenous p53 protein” value with p53 protein is listed as “not changed”.

In the case of `COCCCN1C(=O)c2cccc3cccc(c23)C1=O` [Compound C9-2, 2-(3-Methoxy-propyl)-benzo[de]isoquinoline-1,3-dione], the effect on aggregation result in [3] was “does not appear to suppress aggregation; also recorded: facilitate protein-protein aggregation”. In the data set on photoreceptor neurons, the “neurodegeneration of photoreceptor neurons” value is listed as “dramatic neuroprotection”. For the same molecule, in the data set on HDAc, the “direct inhibition of HDAc activity” value is given as “does not appear to inhibit”. Moreover, the “transcriptional activation or repression” value in data set [4] was “no transcriptional activation or repression”. Besides, the DNA binding activity result in the data set on DNA is “nor has DNA binding activity been detected”. For the same molecule, the transcription activation entry in data set [5] is “did not effectively activate transcription”.

For the molecule `CCOC(=O)c1c(NC(=O)Cc2ccc(OC)cc2)sc(C(=O)Nc2ccccc2OC)c1C` [Compound D1, 2-[2-(4-Methoxy-phenyl)-acetylamino]-5-(2-methoxy-phenylcarbamoyl)-4-methyl-thiophene-3-carboxylic acid ethyl ester], the “effect on protein aggregation” value in the data set with htt103Q-EGFP was “facilitators of protein aggregation”. In addition, the proteasomal dysfunction phenotype result with proteasomal dysfunction is “relieved this phenotype”.

For the molecule `CCOC(=O)c1c(NC(=O)c2ccccc2C)sc(C(=O)Nc2ccccc2OC)c1C` [Compound D2, 5-(2-Methoxy-phenylcarbamoyl)-4-methyl-2-(2-methyl-benzoylamino)-thiophene-3-carboxylic acid ethyl ester], in the data set with htt103Q-EGFP, the “effect on protein aggregation” value is given as “facilitators of protein aggregation”. The proteasomal dysfunction phenotype entry in the data set on proteasomal dysfunction was “relieved this phenotype”.

In data set [1] (14A2/6 cells, 2.5 μM), `O=C(CCCCCN1C(=O)c2cccc3cccc(c23)C1=O)NO` [Scriptaid, 6-(1,3-Dioxo-1H,3H-benzo[de]isoquinolin-2-yl)-hexanoic acid hydroxyamide, reference compound] displayed a cells with aggregation of 100%. The cell viability result in the data set with PC12 cells (14A2/6 cells, 2.5 μM) is listed as “cell death”. The expression of transgene entry in data set [6] (14A2/6 cells) was “dramatic overexpression”; in [6] (other cell lines), “modestly stimulated”. For the same molecule, the toxicity to flies result in the data set on flies was “toxic”.
